Measurements reported in US20200032249A1, “LABELING, ISOLATION, & ANALYSIS OF RNA FROM RARE CELL POPULATIONS” (priority 2017, published 2020).

Assays:
[1] = tested on: 293T cells expressing CD; assay: immunopurification of labeled mRNAs with anti-BrdU antibody and RT-PCR, CD-expressing 293T cells; assay type: cell-based, human
Procedure: (§1) FIG. 1a-f. Labeling and purification of RNA by CD expression and 5-FC treatment. FIG. 1a—Schematic diagram showing RNA labeling using CD and 5-FC. FIG. 1b—Chemical reactions steps involved in the labeling of RNA using CD and 5-FC. The dotted arrow indicates the intermediary steps that are not shown. FIG. 1c Relative fold enrichment of mRNA isolated by Flura-tagging. 293T cells expressing CD or unlabeled controls were treated with 5-FC for the indicated times, labeled mRNAs were immunopurified using anti-BrdU antibody, and the levels of labeled mRNAs of the indicated genes relative to corresponding non-immunoprecipitated inputs normalized to immunopurified mRNAs from cells not expressing CD were quantified by RT-PCR. […] FIG. 1d—Schematic diagram of the constructs used for inducible expression of UPRT and/or CD, and the experimental design. Transduced RFP+MDA231 cells were mixed with unlabeled cells, treated with doxycycline for 24 h and then 5-FC for 4-12 h. Cells were analyzed by immunofluorescence or harvested for RNA analysis. FIG. 1e—Flura-tagging in MDA231 cells in vitro. […] The fold enrichment of the indicated representative human genes over mouse housekeeping genes (mHPRT1 and mLDH1) was measured by RT-PCR (n=3±S.E.). […]
(§2) Next, we determined whether 5-FU-labeled mRNAs can be specifically and efficiently isolated by immunoprecipitation. […]

[2] = tested on: MDA-MB-231 cells; assay: co-culture of CD-expressing MDA231 cells with unlabeled control cells, anti-BrdU immunostaining; assay type: cell-based, human; conditions: CD only, without UPRT and thymine
Procedure: as §1, §2

Which results are given for `Nc1nc(=O)[nH]cc1F` [5-FC, 5-fluorocytosine]?
time for which labeling continued to increase [1]: up to 24 h; time after treatment at which labeled mRNAs were detectable ([1]; three representative genes): 2 h; 5-FU-labeling of neighboring cells not expressing CD [2]: led to 5-FU-labeling of cells that did not express CD as well
